Target: neurotensin receptor 1 (NTR1) (Homo sapiens (Human), UniProt P30989)
Experiment: NTR1 dose response, high-content imaging beta-arrestin-GFP assay in NTR1-U2OS cells
Type: cell-based
Conditions: read-out: EC50
Description: The cell lines utilized in the high-content imaging assays, which include the NTR1-, NTR2-, and GPR35-U2OS osteosarcomas, were obtained from the laboratory of Dr. Lawrence Barak at the Duke University Medical Center. The media used in the culture of the cell lines, as well as the assays themselves, consisted of Minimum Essential Medium (15-010-CM) and L-glutamine (25-005-CL) from Cellgro/Mediatech (Manassas, Va.), fetal bovine serum (SH30396.03) from Hyclone (Logan, Utah), penicillin-streptomycin solution (PS-20) from Omega Scientific in Tarzana, Calif., G418 (ant-gn-1) from Invivogen (San Diego, Calif.), and zeocin (R250-01) from Invitrogen (Carlsbad, Calif.). Cell lines were cultured in T225 tissue culture flasks (431082) supplied by Corning (Corning, N.Y.). Additional reagents employed include Dulbecco's Phosphate-Buffered Saline (DPBS) (21-031CV) from Cellgro/Mediatech, Trypsin-EDTA 0.05% (25300) from Invitrogen, paraformaldehyde (30528954) from Acros Organics (Geel, Belgium), Hoechst 33342 (H3570) from Invitrogen. The high-content assays were run in 1536-well plates (29326) supplied by Aurora Biotechnology (Poway, Calif.) and utilized aluminum plate seals (T592100) from E&K Scientific (Santa Clara, Calif.). […]
The high-content imaging based NTR1 primary screen in 1536-well format was utilized to assay the MLSMR library of chemical entities in the following manner. On day one, 4 uL of a cell suspension containing 350,000 NTR1-U2OS cells per mL is added to each well of a 1536-well assay plate. Cells are plated in MEM medium containing 2.5% Fetal Bovine Serum, 1% Penicillin/Streptomycin solution, 1% L-Glutamine, 400 ug/mL G418, and 200 ug/mL Zeocin. The assay plates are then incubated overnight at 37° C., under 5% CO2. Following the overnight incubation, a volume of 60 nL of the compounds at 2 mM in DMSO (final 20 μM, 1% DMSO) was transferred to columns 5-48 of the assay plates using a LabCyte Echo Liquid Handler. Next, 60 nL of DMSO were dispensed to columns 1-4, which served as the positive and neutral control wells. […] The assay plates were centrifuged on an Eppendorf 5810 centrifuge at 1000 rpm for 1 min to ensure even liquid levels in the wells of the assay plates. The assay plates were then returned to the incubator for 1 hour. Following the hour-long incubation at 37° C., the cells in each well were fixed with 4 uL of 6% paraformaldehyde added with a Multidrop Combi. The assay plates were centrifuged as before and incubated at room temperature for 1 hour. On the Kalypsys, plates were then aspirated down to 2.5 uL per well and washed twice with 11 uL per well of DPBS, followed by a final aspiration to 2.5 uL per well. On the Combi dispenser, 5 uL of 5 ug/mL Hoechst 33342 diluted in DPBS was added to each well of assay plates. The plates were again centrifuged as previously described, sealed, and incubated for at least 1 hour prior to being loaded on a PerkinElmer Opera QEHS.
Image acquisition was performed with a 45 plate capacity loader/stacker and the following settings: 40×0.6 NA air objective, acquisition camera set to 2-by-2 binning for an image size of 688 by 512 pixels, beta-arrestin-GFP acquired using 488 nm laser excitation and 540/75 nm emission filters, DAPI (nuclei) using 365 nm Xenon lamp excitation and 450/50 nm emission filters, 3 fields per well. Image analysis was performed using the Acapella Spot Detection Algorithm. For analysis settings and the metrics employed in the data analyses, please refer to supplemental information.
Compounds that were successfully confirmed in quadruplicate at 20 uM were then run in dose response in the primary assay. As with the single concentration hit confirmation, the assay was performed in an identical manner as the primary screen with the following modifications. […]

Chain of neurotensin receptor 1 (NTR1) (P30989 whole entry, species assumed): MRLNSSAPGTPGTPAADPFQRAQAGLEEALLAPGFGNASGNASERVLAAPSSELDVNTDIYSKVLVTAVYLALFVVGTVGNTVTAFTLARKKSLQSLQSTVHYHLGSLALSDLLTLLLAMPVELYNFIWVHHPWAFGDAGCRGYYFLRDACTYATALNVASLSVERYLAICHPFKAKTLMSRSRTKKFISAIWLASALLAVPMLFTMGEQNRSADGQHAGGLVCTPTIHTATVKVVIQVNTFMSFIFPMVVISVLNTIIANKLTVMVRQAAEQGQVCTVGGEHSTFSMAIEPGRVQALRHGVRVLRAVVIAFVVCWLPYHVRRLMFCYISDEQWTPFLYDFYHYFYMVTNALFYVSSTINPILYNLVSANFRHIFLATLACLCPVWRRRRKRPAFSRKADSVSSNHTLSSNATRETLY

EC50 [nM]	Compound
500 to 2000	CCCN(C)c1ccc2nc(C3(F)CC3)nc(N3CCC(c4ccccc4OC)CC3)c2c1 [Example 20, {2-(1-fluoro-cyclopropyl)-4-[4-(2-methoxy-phenyl)-piperidin-1-yl]-quinazolin-6-yl}-methyl-propyl-amine]
> 10000	COc1ccccc1C1CCN(c2nc(C3(C(F)(F)F)CCC3)nc3ccc(N(C)CCN4CCOCC4)cc23)CC1 [Example 64, [4-[4-(2-methoxy-phenyl)-piperidin-1-yl]-2-(1-trifluoromethyl-cyclobutyl)-quinazolin-6-yl]-methyl-(2-morpholin-4-yl-ethyl)-amine]
2000 to 10000	CN(C)c1ccccc1C1CCN(c2nc(C3(F)CCCC3)nc3ccc(N(C)CCO)cc23)CC1 [Example 75, 2-{[4-[4-(2-dimethylamino-phenyl)-piperidin-1-yl]-2-(1-fluoro-cyclopentyl)-quinazolin-6-yl]-methyl-amino}-ethanol]
2000 to 10000	COc1ccccc1C1CCN(c2nc(C3(F)CCC3)nc3c(Cl)cc(N4CC[C@@H](O)C4)cc23)CC1 [Example 182]
> 10000	COc1cc(F)ccc1C1CCN(c2nc(C3CC3)nc3cc(Cl)c(N(C)CCO)cc23)CC1 [Example 112, 2-({7-chloro-2-cyclopropyl-4-[4-(4-fluoro-2-methoxy-phenyl)-piperidin-1-yl]-quinazolin-6-yl}-methyl-amino)-ethanol]
> 10000	COc1ccccc1C1CCN(c2nc(NC3CCC3)nc3ccc(N(C)CCO)cc23)CC1 [Example 98, 2-((2-(cyclobutylamino)-4-(4-(2-methoxyphenyl)piperidin-1-yl)quinazolin-6-yl)(methyl)amino)ethanol]
> 10000	COc1cccc2c1CCN(c1nc(C3CC3)nc3ccc(N(C)CCO)cc13)CC2 [Example 150, 2-{[2-cyclopropyl-4-(6-methoxy-1,2,4,5-tetrahydro-benzo[d]azepin-3-yl)-quinazolin-6-yl]-methyl-amino}-ethanol]
2000 to 10000	COc1ccccc1C1CCN(c2nc(C3(F)CCC3)nc3cnc(N4CC[C@@H](O)C4)cc23)CC1 [Example 199, 1-{2-(1-Fluoro-cyclobutyl)-4-[4-(2-methoxy-phenyl)-piperidin-1-yl]-pyrido[3,4-d]pyrimidin-6-yl}-pyrrolidin-3-ol]
2000 to 10000	COc1ccncc1C1CCN(c2nc(C3(F)CC3)nc3ccc(N(C)CCO)cc23)CC1 [Example 210, 2-{[2-(1-Fluoro-cyclopropyl)-4-(4-methoxy-3′,4′,5′,6′-tetrahydro-2′H-[3,4′]bipyridinyl-1′-yl)-quinazolin-6-yl]-methyl-amino}-ethanol]
> 10000	CN(CCO)c1ccc2nc(C3(F)CC3)nc(N3CCC(C4CCCCC4)CC3)c2c1 [Example 139, 2-((4-(4-cyclohexylpiperidin-1-yl)-2-(1-fluorocyclopropyl)quinazolin-6-yl)(methyl)amino)ethanol]
2000 to 10000	COc1cc(F)ccc1C1CCN(c2nc(C3CC3)nc3cc(C)c(N(C)CCO)cc23)CC1 [Example 114, 2-({2-cyclopropyl-4-[4-(4-fluoro-2-methoxy-phenyl)-piperidin-1-yl]-7-methyl-quinazolin-6-yl}-methyl-amino)-ethanol]
> 10000	CCOC(=O)CN(C)C1CCN(c2ccc3nc(C4CC4)nc(N4CCC(c5ccccc5OC)CC4)c3c2)CC1 [Example 93, [(1-{2-cyclopropyl-4-[4-(2-methoxy-phenyl)-piperidin-1-yl]-quinazolin-6-yl}-piperidin-4-yl)-methyl-amino]-acetic acid ethyl ester]
> 10000	CCCN(C)c1cccc2c(N3CCC(c4ccccc4OC)CC3)nc(C3CC3)nc12 [Example 128, {2-cyclopropyl-4-[4-(2-methoxy-phenyl)-piperidin-1-yl]-quinazolin-8-yl}-methyl-propyl-amine]
500 to 2000	COc1ccccc1C1CCN(c2nc(C3CC3)nc3ccc(N4CC[C@@H](OC)C4)cc23)CC1 [Example 176, (R)-2-cyclopropyl-4-[4-(2-methoxy-phenyl)-piperidin-1-yl]-6-(3-methoxy-pyrrolidin-1-yl)-quinazoline]
2000 to 10000	CN(C)c1ccccc1C1CCN(c2nc(C3(C(F)(F)F)CCCC3)nc3ccc(N(C)CCN4CCOCC4)cc23)CC1 [Example 58, [4-[4-(2-dimethylamino-phenyl)-piperidin-1-yl]-2-(1-trifluoromethyl-cyclopentyl)-quinazolin-6-yl]-methyl-(2-morpholin-4-yl-ethyl)-amine]
500 to 2000	CCN(C)c1ccc2nc(C3CC3)nc(N3CCN(c4ccccc4N4CCC4)CC3)c2c1 [Example 2, {4-[4-(2-azetidin-1-yl-phenyl)-piperazin-1-yl]-2-cyclopropyl-quinazolin-6-yl}-ethyl-methyl-amine]
2000 to 10000	COCCN(C)c1ccc2nc(C3(C)CC3)nc(N3CCC(c4ccccc4OC)CC3)c2c1 [Example 33, N-(2-methoxyethyl)-4-(4-(2-methoxyphenyl)piperidin-1-yl)-N-methyl-2-(1-methylcyclopropyl)quinazolin-6-amine]
2000 to 10000	COc1ccccc1C1CCN(c2nc(C3(F)CCCC3)nc3ccc(N(C)CCN4CCOCC4)cc23)CC1 [Example 71, {2-(1fluoro-cyclopentyl)-4-[4-(2-methoxy-phenyl)-piperidin-1-yl]-quinazolin-6-yl}-methyl-(2-morpholin-4-yl-ethyl)-amine]
< 500	COc1ccccc1C1CCN(c2nc(C3(F)CC3)nc3cnc(N(C)CCO)cc23)CC1 [Example 195, 2-({2-(1-Fluoro-cyclopropyl)-4-[4-(2-methoxy-phenyl)-piperidin-1-yl]-pyrido[3,4-d]pyrimidin-6-yl}-methyl-amino)-ethanol]
2000 to 10000	COc1ccccc1C1CCN(c2nc(C3(F)CCC3)nc3cnc(N(C)CCO)cc23)CC1 [Example 198, 2-({2-(1-Fluoro-cyclobutyl)-4-[4-(2-methoxy-phenyl)-piperidin-1-yl]-pyrido[3,4-d]pyrimidin-6-yl}-methyl-amino)-ethanol]
> 10000	COc1ccccc1C1CCN(c2nc(C3CCCC3)nc3ccc(N(C)CCN4CCOCC4)cc23)CC1 [Example 41]
2000 to 10000	COc1ccccc1C1CCN(c2nc(C3(F)CCC3)nc3c(Cl)cc(N4CC[C@H](O)C4)cc23)CC1 [Example 183]
< 500	COc1ccccc1C1CCN(c2nc(C3CC3)nc3cnc(N(C)CCO)cc23)CC1 [Example 137, 2-({2-cyclopropyl-4-[4-(2-methoxy-phenyl)-piperidin-1-yl]-pyrido[3,4-d]pyrimidin-6-yl}-methyl-amino)-ethanol]
2000 to 10000	CCCN(C)c1ccc2c(N3CCC(c4ccccc4OC)CC3)nc(C3CC3)nc2c1 [Example 170, {2-Cyclopropyl-4-[4-(2-methoxy-phenyl)-piperidin-1-yl]-quinazolin-7-yl}-methyl-propyl-amine]
500 to 2000	COc1ccccc1C1CCN(c2nc(C3(F)CC3)nc3ccc(N(C)CCOCCF)cc23)CC1 [Example 223, {2-(1-Fluoro-cyclopropyl)-4-[4-(2-methoxy-phenyl)-piperidin-1-yl]-quinazolin-6-yl}-[2-(2-fluoro-ethoxy)-ethyl]-methyl-amine]
> 10000	CN(CCN1CCCC1)c1ccc2nc(C3CC3)nc(N3CCC(c4ccccc4N4CCC4)CC3)c2c1 [Example 9, {4-[4-(2-azetidin-1-yl-phenyl)-piperidin-1-yl]-2-cyclopropyl-quinazolin-6-yl}-methyl-(2-pyrrolidin-1-yl-ethyl)-amine]
2000 to 10000	COc1ccccc1C1CCN(c2nc(C3(C)CCCC3)nc3ccc(N(C)CCN4CCOCC4)cc23)CC1 [Example 52]
